# From patent US20250034094A1, “A FAST AND EFFICIENT PROCESS FOR THE PREPARATION OF N-RETINYLIDENE-N-RETINYLETHANOLAMINE (A2E)” (Purdue Research Foundation, priority 2021, published 2025)
# Experiments:
# ARPE19 cells = assay: Cell viability assay (AlamarBlue) of ARPE19 cells treated with A2E lots, with or without inhibitors; type: cell-based; details: RPE cells, 24 hours in the dark
# Description: ARPE19 cells from ATCC were plated at 80% confluency in 96-well plates and pre-treated for 1 hour with inhibitors (33 μM Necrostatin 7 (Cayman Chemicals): 2 mM N-acetyl-cysteine (NAC) (Sigma): 50 μg/ml phoroglucinol (Sigma)), after which the medium was supplemented with A2E/ATRD or vehicle (control) and cells were incubated in serum-free OptiMEM (Invitrogen) medium for an additional 23 hours at 37° C. To assess viability, 20 μL of 10× AlamarBlue® (Invitrogen) were added per well, and cells were incubated for an additional hour before reading the fluorescence in SpectraMax M5e (Molecular Devices, CA, USA) using 555 nm excitation/585 nm emission.
# [1] = HPLC analysis, cited from earlier work
smiles,measurement,setting,value
"CC(C=CC1=C(C)CCCC1(C)C)=CC=CC(C)=Cc1cc(C=CC=C(C)C=CC2=C(C)CCCC2(C)C)cc[n+]1CCO [A2E #1, N-retinylidene-N-retinylethanolamine]",protection from A2E-induced toxicity by antioxidants (NAC),ARPE19 cells; pre-treated with 2 mM N-acetyl-cysteine,partially protected by antioxidants (NAC)
"CC(C=CC1=C(C)CCCC1(C)C)=CC=CC(C)=Cc1cc(C=CC=C(C)C=CC2=C(C)CCCC2(C)C)cc[n+]1CCO [A2E #3, N-retinylidene-N-retinylethanolamine]",neutralization of A2E toxicity by necroptosis inhibitor Nec7,ARPE19 cells; pre-treated with 33 μM Necrostatin 7,"better neutralized with the necroptosis inhibitor, Nec7"
"CC(C=CC1=C(C)CCCC1(C)C)=CC=CC(C)=Cc1cc(C=CC=C(C)C=CC2=C(C)CCCC2(C)C)cc[n+]1CCO [A2E, N-retinylidene-N-retinylethanolamine]","stability in THF, CHCl3 or EtOH","[1]; solvents THF, CHCl3 or EtOH",not stable
same,stability in methanol and DMSO,[1]; solvents methanol and DMSO,stable
